Experimental data reported in patent publication US20240408064A1, “RAS INHIBITORS, COMPOSITIONS AND METHODS OF USE THEREOF” (GENETOLEAD INC., priority 2021, published 2024).
“Also recorded” adds a separate entry of the source. Read-outs that look alike come from different tables or passages of the source.

Columns and labels:
KRAS^G12D-GDP [1] = target: T1, KRAS^G12D-GDP (Homo sapiens (Human), UniProt P01116, G12D); experiment: 19F T2-CPMG score, KRAS^G12D-GDP; format: binding
Method: (§1) Since the fragment library was curated using phosphate buffer, 25 mM sodium phosphate pH 7.4, 150 mM NaCl, 5 mM MgCl2, 1 mM TCEP-d16, 10% D2O Fresh TCEP was used for experiments. Screening was performed using ^1H-decoupled 1D ^19F experiment Bruker experiment (zgfhigqn.2) with 64 scans and a relaxation delay of 5 seconds. 50 μM HRas^G12V and 240 μM of each fragment in pools (mixtures) were used.
(§2) Hit confirmation was performed using the same ^19F experiment as the screen. Ligand-observed 1D ^1H, protein-observed 1D ^1H, ^1H T2-CPMG as well as Saturation Transfer Difference (STD) experiments were also run on the same samples. Ligand-observed 1D ^1H was run using the standard Bruker sequence with excitation sculpting (zgesgp) with a relaxation delay of 10 seconds and 16 scans per spectrum. Protein-observed 1D ^1H was performed using the same sequence with a relaxation delay of 1 second and 256 scans in order to increase the signal-to-noise of the protein resonances, while keeping the experimental time relatively short. The ^1H T2-CPMG experiment employed a modified version of the Bruker 1D ^1H zgesgp experiment with the addition of a CPMG pulse train after the first 90° excitation pulse. Total duration for each spin echo was fixed at 1 ms (τ=500 μs), while the number of echoes in the pulse train was varied according to the total time (T). The number of scans for each spectrum was 4 and eight delay times were run on each sample, ranging from 1 ms to 800 ms.
(§3) The activity of compounds of the invention regarding KRAS^G12D-GDP was measured in the same as in Example 80. The results obtained with the compounds in the various assays described above are depicted in Table 23.

KRAS^G12D-GDP [2] = target: T1, KRAS^G12D-GDP; experiment: 19F DLB score, KRAS^G12D-GDP; format: binding; parameters: scale not given here
Method: as §1, §2, §3

HRas^G12V [3] = target: T2, HRas^G12V (Homo sapiens (Human), UniProt P01112, G12V); experiment: 19F T2-CPMG NMR score; format: binding
How it was run: (§4)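 Fragments were pooled at 240 μM each with 50 μM HRas G12V in 25 mM sodium phosphate pH 7.4, 150 mM NaCl, 5 mM MgCl2, 1 mM TCEP-d16, 10% D2O, and screened by 1H-decoupled 1D 19F NMR at 600 MHz (64 scans, 5 s relaxation delay). T2-CPMG data were collected with 1 ms echoes and eight delays from 1 to 800 ms.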

HRas^G12V [4] = target: T2, HRas^G12V; experiment: Dissociation constant by NMR (1H/15N Fast-HSQC, 1H 1D protein-observed); format: binding; conditions: HRas^G12V; read-out: NMR Kd
Method: All NMR experiments were collected using 3 mm NMR tubes on a 600 MHz Bruker Avance III spectrometer equipped with a QCI helium cryoprobe and a SampleJet sample changer. The buffer used for NMR experiments was 25 mM sodium phosphate pH 7.4, 150 mM NaCl, 5 mM MgCl2, 1 mM TCEP-d16, 10% D2O. Data were processed using Bruker TopSpin.
(§5) ^1H/^15N Fast-HSQC experiments (Mori et al., Journal of Magnetic Resonance, Series B, Volume 108, Issue 1, July 1995, Pages 94-98) were recorded at a protein concentration of 50-100 μM.
(§6) Dissociation constants were obtained by monitoring changes in chemical shifts as a function of ligand concentration. The changes in chemical shifts (d) were calculated according to the following equation (Williamson, Progress in Nuclear Magnetic Resonance Spectroscopy, Volume 73, August 2013, Pages 1-16): d=√(1/2[δ_H^2+[…]]), Where δ are the changes in chemical shift in ppm for ^1H and ^15N and the correction factor (α) was set at 0.15.
(§7) ^1H 1D protein-observed experiments were recorded with 15-50 μM protein. The standard Bruker 1D ^1H sequence with excitation sculpting (zgesgp) was employed. A relaxation delay of 1 s was employed in order to use 256 scans while still keeping experimental time fairly short. Changes in protein chemical shift or peak intensity in the methyl region were monitored against compound concentration.

HRas^G12V [5] = target: T2, HRas^G12V; experiment: 19F DLB (ligand-observed 19F NMR) score; format: binding; parameters: scale not given here
How it was run: as §4

HRas^G12V [6] = target: T2, HRas^G12V; experiment: Overall binding/activity in the various assays (NMR consensus binding)
How it was run: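 Fragments (240 µM each, pooled) screened against 50 µM HRas^G12V in 25 mM sodium phosphate pH 7.4, 150 mM NaCl, 5 mM MgCl2, 1 mM TCEP-d16 by 1H-decoupled 1D 19F NMR. Hits confirmed by ligand- and protein-observed 1D 1H, STD and T2-CPMG (aggregation check); consensus binding ranked, with 15N HSQC for sites and Kd.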

KRAS^G12D-GDP [7] = target: T1, KRAS^G12D-GDP; experiment: NMR Kd, KRAS^G12D-GDP; format: binding; conditions: 1H 1D protein-observed NMR, read-out: 1H 1D PO NMR Kd
Method: as §5, §6, §7, §3

KRAS^G12D-GDP [8] = target: T1, KRAS^G12D-GDP; experiment: Overall activity in the various assays, KRAS^G12D-GDP; format: binding
Method: as §3

[9] = Solubility and free-state aggregation in the NMR screen; format: physicochemical; conditions: NMR buffer
Description: Fragment screening has been performed using a library containing 461 fragments that has been designed using cheminformatics parameters such as Rule of Three and PAINS analysis. All fragments have been curated by ^1H and ^19F NMR for structure verification, purity, solubility in phosphate buffer and lack of apparent aggregation under these conditions. Fragments were pooled according to chemical compatibility resulting in 31 different pools to increase screening throughput. The library was provided by NMX Research in Solutions Inc.
Because of its power to probe the intrinsically weak interactions (Kd) between targets and low-molecular weight fragments, NMR fragment-based lead discovery (FBLD) is a very useful biophysical method in early stage drug discovery, especially for challenging target proteins; including those with shallow binding pockets. Since FBLD screens are performed using low-molecular weight compounds (fragments) with lower structural complexity, the same chemical space can be covered using a smaller number of drug-like fragments versus use of large libraries of higher-molecular weight lead-like compounds as in high throughput screening (HTS) campaigns. Therefore, FBLD has a much higher hit rate than HTS using only several hundred to several thousand compounds in comparison with approximately 1 million compounds for HTS. Also, the small size of the compounds screened in FBLD means a better chance to fully match the interactions with small or transient pockets within the target protein, where these less tractable pockets cannot be accessed with standard classical HTS methods. […] We expect this methodology to be more advantageous than classical HTS methods for expediting the time from hit to lead (H2L) and allows for rapid access to high quality leads with lower attrition rates in subsequent lead optimization (LO) campaigns toward pre-clinical candidate selection. FBLD screening by NMR involves a “consensus binding” approach where several distinct NMR experiments (DLB, STD, CPMG) are applied along with a free-state aggregation detection method (T2-CPMG) to rank the compounds for their affinity to the receptor (HRAS in this case) whilst simultaneously monitoring the solution behavior and critical quality attributes of each compound. The latter helps to eliminate artifact binders which are highly problematic. We performed a fluorine screen involving 461 compounds that were derived from a highly curated fragment library. Moreover, two-dimensional ^15N HSQC NMR was also used to validate ligand-binding sites on the target protein. In addition, we employed protein-detected biophysical measurements were employed to determine fragment binding affinities to the target protein (Kd) by HSQC NMR. From the results, we picked the most interesting hit were picked, FS-1255 that was identified based on consensus binding evidence from all NMR detection methods, and based the lack of free-state aggregation by T2-CPMG. We chose to prioritize on FS-1255 which was the most promising fragment hit.

wild type HRAS [10] = target: T3, wild type HRAS (Homo sapiens (Human), UniProt P01112); experiment: 19F DLB score, wild type HRAS; format: binding
Method: as §1, §2
(§8) The activity of compounds of the invention regarding wild type HRAS was measured in the same as in Example 80. The results obtained with the compounds in the various assays described above are depicted in Table 2.

wild type HRAS [11] = target: T3, wild type HRAS; experiment: 19F T2-CPMG score, wild type HRAS; format: binding
Method: as §1, §2, §8

| SMILES | 19F T2-CPMG Score (KRAS^G12D-GDP [1]) | 19F DLB Score (KRAS^G12D-GDP [2]) | 19F T2-CPMG Score (HRas^G12V [3]) | Kd (HRas^G12V [4]) [mM] | Activity ranking on HRas^G12V (in words) (HRas^G12V [6]) | 19F DLB Score (HRas^G12V [5]) | Solution behaviour in the NMR screen [9] | Binding to HRas^G12V (in words) (HRas^G12V [6]) | other results |
| --- | --- | --- | --- | --- | --- | --- | --- | --- | --- |
| CN(C)S(=O)(=O)NCCc1c[nH]c2cc(F)ccc12 [Compound 10004, reference compound] | 9.41 | 2.06 | 19.49 | 6.16 to 6.4 |  |  |  |  | 19F DLB Score (HRas^G12V [5]; @ 50 uM): 5.34 @ 50 uM |
| O=C(Cc1c[nH]c2cc(F)ccc12)Nc1ccccc1 [Compound 10021, 2-(6-fluoro-1H-indol-3-yl)-N-phenyl acetamide] | >LOQ | 2.62 | 38.83 |  |  |  |  |  | 19F DLB Score (HRas^G12V [5]; @ 50 uM): 8.73 @ 50 uM |
| O=C(Cc1c[nH]c2ncc(F)cc12)N1CCC1 [Compound 10035, 1-(azetidin-1-yl)-2-(5-fluoro-1H-pyrrolo[2,3-b]pyridin-3-yl)ethan-1-one] |  |  | −0.11 | > 10 | More active | 0.91 |  |  |  |
| CC(=O)N1CCN(C(=O)Cc2c[nH]c3cc(F)ccc23)CC1 [Compound 10040] | 7.49 | 1.63 | 12.69 | 4.03 to 9.5 | More active | 1.64 |  |  | Kd (KRAS^G12D-GDP [7]): 5.2 mM; Activity ranking on KRAS^G12D-GDP (in words) (KRAS^G12D-GDP [8]): most active |
| O=C(Cc1c[nH]c2cc(F)ccc12)N1CCCCC1 [Compound 10053] | >LOQ | 4.89 | 39.43 | 1.53 | More active | 5.85 |  |  |  |
| COC(=O)c1cc(NC(=O)Cc2c[nH]c3cc(F)ccc23)cc(OC)c1 [Compound 10060] |  |  |  |  |  |  | Not soluble | low or no binding |  |
| CC(C(=O)N1CCC1)c1c[nH]c2cc(F)ccc12 (stereo not drawn) [Compound 10066, 1-(azetidin-1-yl)-2-(6-fluoro-1H-indol-3-yl) propan-1-one] | 9.14 | 2.22 | 21.34 | 3.51 to 4 | More active | 2.94 |  |  |  |
| CN(C)C[C@@H]1CN(C(=O)Cc2c[nH]c3cc(F)ccc23)CCO1 [Compound 10159] |  |  | 19.26 | 2.95 to 3.43 | More active | 3.93 |  |  |  |
| CCOC(=O)Cc1c[nH]c2cc(F)ccc12 [Compound 11003, ethyl 2-(6-fluoro-1H-indol-3-yl) acetate] | 14.19 | 2.20 | 11.18 |  |  | 2.23 |  |  |  |
| CN(C)CC(=O)Nc1cccc(NC(=O)C(C#N)c2c[nH]c3cc(F)ccc23)c1 (stereo not drawn) [Compound 11032] |  |  | <LLOQ |  | More active; also recorded: Most active | 4.73 |  |  | 19F DLB Score (wild type HRAS [10]): 5.76; 19F T2-CPMG Score (wild type HRAS [11]): <LLOQ |
| CN(C)Cc1[nH]c2cc(F)ccc2c1C(CC(=O)O)c1ccccc1F (stereo not drawn) [Compound 11066] |  |  | −0.25 |  | More active | 0.91 |  |  | Activity ranking on KRAS^G12D-GDP (in words) (KRAS^G12D-GDP [8]): most active |

The next lines start with results.

| 19F T2-CPMG Score (KRAS^G12D-GDP [1]) | 19F DLB Score (KRAS^G12D-GDP [2]) | 19F T2-CPMG Score (HRas^G12V [3]) | Kd (HRas^G12V [4]) [mM] | Activity ranking on HRas^G12V (in words) (HRas^G12V [6]) | 19F DLB Score (HRas^G12V [5]) | Solution behaviour in the NMR screen [9] | Binding to HRas^G12V (in words) (HRas^G12V [6]) | SMILES | other results |
| --- | --- | --- | --- | --- | --- | --- | --- | --- | --- |
| >LOQ | 2.46 | 38.3 | 2.32 | More active | 3.12 |  |  | CC(=O)Nc1cccc(NC(=O)Cc2c[nH]c3cc(F)ccc23)c1 [Compound 10014] |  |
|  |  |  |  |  |  | Not soluble | low or no binding | COc1cc(Cl)ccc1NC(=O)Cc1c[nH]c2cc(F)ccc12 [Compound 10051] |  |
|  |  |  |  |  |  | Not soluble | low or no binding | N#Cc1ccc(NC(=O)Cc2c[nH]c3cc(F)ccc23)cc1 [Compound 10054] |  |
|  |  |  |  |  |  | Not soluble | low or no binding | COc1ccc(NC(=O)Cc2c[nH]c3cc(F)ccc23)cc1Cl [Compound 10055] |  |
|  |  |  |  |  |  | Not soluble | low or no binding | COc1ccc(NC(=O)Cc2c[nH]c3cc(F)ccc23)cc1F [Compound 10056] |  |
|  |  |  |  |  |  | Not soluble | low or no binding | COc1ccc(NC(=O)Cc2c[nH]c3cc(F)ccc23)cc1C [Compound 10057] |  |
|  |  |  |  |  |  | Not soluble | low or no binding | Cc1ccc(Cl)cc1NC(=O)Cc1c[nH]c2cc(F)ccc12 [Compound 10061] |  |
|  |  |  |  |  |  | Aggregated | low or no binding | O=C(Cc1c[nH]c2cc(F)ccc12)Nc1cccc(F)c1 [Compound 10072] |  |
